Here are results for six compounds from PubChem BioAssay (NCI).

Some test systems named below: RXF 393 renal; MALME-3M melanoma; NCI/ADR-RES ovarian; CAKI-1 renal; SF-268 CNS; TK-10 renal; MDA-MB-435; MOLT-4 leukemia; KM12 colon; LOX IMVI melanoma.
Holding throughout (experiment): NCI-60 cell line screen, 48 h

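All cell lines were grown in 96-well plates and treated with compound for 48 hours. GI50 = concentration required for 50% inhibition of growth. Definition used: TGI = concentration required for complete inhibition of growth.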 Some results are limits rather than exact numbers.

With `COc1ccc2sc3cccc(NCCN(C)C)c3c(=O)c2c1`, the GI50 with RXF 393 renal was 2670 nM; in the assay on MALME-3M melanoma, 1950 nM; in the assay with NCI/ADR-RES ovarian, 2980 nM; in the assay with CAKI-1 renal it was 3720 nM; in the assay with SF-268 CNS, 3810 nM; in the assay with TK-10 renal, 4060 nM. For the same compound, the values for the GI50 in the assay with MDA-MB-435, with MOLT-4 leukemia and in the assay with KM12 colon were 2030 nM, 2500 nM and 3720 nM, respectively. Moreover, the TGI in the assay on RXF 393 renal is 9760 nM; with MALME-3M melanoma it was 3880 nM; with NCI/ADR-RES ovarian, 11300 nM; in the assay with CAKI-1 renal, 15500 nM; with SF-268 CNS it was 14400 nM; in the assay on TK-10 renal it was 14300 nM. For the same compound, the values for the TGI in the assay on MDA-MB-435, with MOLT-4 leukemia and in the assay with KM12 colon were 5070 nM, 6010 nM and 12100 nM, respectively.
`Nc1ccccc1NC(=O)c1ccc(CNc2nccc(-c3cccnc3)n2)cc1`: the GI50 is 878 nM with RXF 393 renal; 570 nM in the assay with MALME-3M melanoma; 803 nM in the assay on NCI/ADR-RES ovarian; 323 nM in the assay on CAKI-1 renal; 995 nM with SF-268 CNS; 304 nM in the assay with TK-10 renal. The GI50 in the assay on MDA-MB-435 is 299 nM; in the assay on MOLT-4 leukemia, 643 nM; in the assay on KM12 colon, 886 nM. The TGI in the assay on RXF 393 renal was 3010 nM; in the assay with MALME-3M melanoma, over 21700 nM; with NCI/ADR-RES ovarian, over 22900 nM; with SF-268 CNS, over 21400 nM; in the assay on TK-10 renal, over 27200 nM; with MDA-MB-435 it was 1250 nM. Also, the TGI in the assay on MOLT-4 leukemia is over 23200 nM; in the assay on KM12 colon, 14100 nM.
As for `COc1ccc(C(=O)Nc2ncc(Cc3cccc(Cl)c3)s2)cc1OC`, the GI50 in the assay on RXF 393 renal is 1070 nM; in the assay with LOX IMVI melanoma, 19.7 nM; with MALME-3M melanoma, 748 nM; in the assay on NCI/ADR-RES ovarian, 398 nM; in the assay with CAKI-1 renal, 309 nM; in the assay with SF-268 CNS it was 882 nM. For the same compound, the GI50 is 7850 nM with TK-10 renal, 374 nM in the assay on MOLT-4 leukemia and 54.7 nM with KM12 colon. Also, the TGI with RXF 393 renal was 6540 nM; with LOX IMVI melanoma, over 100000 nM; in the assay on MALME-3M melanoma it was over 100000 nM; with NCI/ADR-RES ovarian, over 100000 nM; in the assay on CAKI-1 renal, over 100000 nM; in the assay on SF-268 CNS, over 100000 nM. In addition, the TGI in the assay on TK-10 renal, in the assay with MOLT-4 leukemia and with KM12 colon was over 100000 nM in each case.
Take `C[C@]12CC[C@@H]3c4cc(OC(F)F)c(O)cc4CC[C@H]3[C@@H]1CC[C@@H]2OS(N)(=O)=O`: the GI50 in the assay with RXF 393 renal is 315 nM; in the assay with LOX IMVI melanoma, 585 nM; in the assay on MALME-3M melanoma, 348 nM; in the assay with NCI/ADR-RES ovarian, 484 nM; with CAKI-1 renal it was 548 nM; in the assay with SF-268 CNS, 3150 nM. In addition, the GI50 was 14600 nM in the assay with TK-10 renal, 598 nM in the assay with MOLT-4 leukemia and 545 nM in the assay on KM12 colon. Besides, the TGI was 6420 nM in the assay on RXF 393 renal; 22600 nM in the assay with LOX IMVI melanoma; 27400 nM with MALME-3M melanoma; 25300 nM with NCI/ADR-RES ovarian; over 70200 nM in the assay with CAKI-1 renal; over 100000 nM with SF-268 CNS. For the same compound, the TGI with TK-10 renal is over 92500 nM; in the assay on MOLT-4 leukemia it was over 100000 nM; in the assay on KM12 colon it was 31000 nM.
`NCCCNc1nc2ccccc2c2c(=O)c3cc(F)cc(F)c3sc12`: the GI50 was 1420 nM in the assay on RXF 393 renal; 1620 nM with MALME-3M melanoma; 1810 nM in the assay on NCI/ADR-RES ovarian; 1860 nM in the assay on CAKI-1 renal; 1630 nM with SF-268 CNS; 1690 nM in the assay on TK-10 renal. For the same compound, the GI50 with MDA-MB-435 was 1630 nM; in the assay with KM12 colon, 1740 nM. For the same compound, the TGI with RXF 393 renal was 2970 nM; in the assay with MALME-3M melanoma it was 3210 nM; in the assay with NCI/ADR-RES ovarian it was 3690 nM; with CAKI-1 renal, 4180 nM; with SF-268 CNS, 3320 nM; in the assay with TK-10 renal, 3180 nM. The TGI was 3020 nM in the assay with MDA-MB-435 and 3260 nM with KM12 colon.
Turning to `COC(=O)[C@@H](C)C[C@H](Cc1cn(C)c2ccccc12)NC(=O)c1csc([C@@H](C[C@H](C(C)C)N(C)C(=O)[C@@H](NC(=O)[C@H]2CCCCN2C)C(C)C)OC(C)=O)n1`, the GI50 was 23 nM with RXF 393 renal; 11 nM with LOX IMVI melanoma; 417 nM with NCI/ADR-RES ovarian; 27.2 nM in the assay on SF-268 CNS; 2770 nM with TK-10 renal; 2.15 nM in the assay with MDA-MB-435. Besides, the GI50 in the assay with MOLT-4 leukemia was 13 nM; in the assay on KM12 colon, 10.8 nM. Besides, the TGI was over 16700 nM in the assay with RXF 393 renal; over 16700 nM in the assay with LOX IMVI melanoma; over 16700 nM with NCI/ADR-RES ovarian; over 16700 nM in the assay on SF-268 CNS; over 16700 nM in the assay on TK-10 renal; 8.56 nM in the assay with MDA-MB-435. The TGI in the assay on MOLT-4 leukemia and in the assay with KM12 colon was over 16700 nM throughout.
